Data published in US20180340012A1, “METHODS AND CO[…] TO IMPROVING PROPERTIES OF PHARMACOLOGICAL AGENTS TARGETING NERVOUS SYSTEM” (University of Utah Research Foundation, priority 2006, published 2018).

Experiments:
[1] = test system: clonic (s.c. Metrazol) seizures; assay: s.c. Metrazol seizure test; assay type: in vivo, mice; conditions: 4 mg/kg i.p., tested one hour later
Experimental: Mice will be placed into individual plexiglas observation boxes and observed for 30 minutes for the presence of a minimal clonic seizure. Mice not displaying clonic seizure activity will be considered protected.

[2] = test system: tonic-extension (maximal electroshock) seizures; assay: Maximal electroshock seizure test; assay type: in vivo, mice; conditions: 4 mg/kg i.p., tested one hour later
Description: Abolition of the hindleg tonic extensor component of the seizure is used as the endpoint.

[3] = test system: formalin-induced paw licking; assay: Mouse formalin test; assay type: in vivo
Experimental: An injection of 0.5% formalin is made into the planter region of a mouse right hind paw. This elicits a distinct biphasic behavioral profile characterized by the mouse licking the affected paw. Immediately following the injection the mouse licks the paw for about 10 minutes. This is phase 1 (acute) and is followed by a brief latent period where there is little behavioral activity. A more prolonged period of about 20 to 30 minutes of paw licking ensues which constitutes phase 2 (inflammatory).
Prior to the administration of the active peptide, drug or vehicle each mouse undergoes a 15-minute conditioning period in one of several 6″ tall plexiglass observation tubes (4″ diameter) that are placed in front of a mirror. […] One hour after treatment, formalin was injected sub-dermally (20 μl; 27 gauge needle) into the plantar surface of the right hind foot. The bevel of the needle is placed facing down toward the skin surface. Following the injection of the formalin each animal is observed for first 2 minutes of each 5 minute epoch for a total of 45 minutes. The cumulative length of licking for each 2 minute time period was measured. An animal receiving the requisite volume of vehicle was alternated with each mouse given GAL-BBB2, Gal 1-16, or gabapentin. Animals were euthanized following the conclusion of the experiment.
Area under the curve (AUC) determination was made using the GraphPad Prism Version 3.03. Total AUC is calculated for both the test and control groups for both the acute and inflammatory phases. The AUC for individual animals for each phase is also calculated and converted to percentage of total AUC of control. The average percentages and SEM for both the drug treated and control were calculated and tested for significant difference.

mechanical allodynia = assay: Sciatic nerve ligation model, mechanical allodynia; assay type: in vivo, rats
Experimental: Just prior to surgery, rats are treated subcutaneously with 0.1 to 0.5 mg/kg of the long acting opiate buprenorphine. Rats are then anesthetized with pentobarbital and the depth of anesthesia monitored by their response to a tail pinch and observation of the depth of respiration. Sterile technique was used throughout the surgery.
The upper thigh of each rat was shaved and wiped off with ethanol and betadine. A small incision was made in the skin and through the underlying muscle of the upper thigh until the sciatic nerve was exposed. The nerve was then separated from the surrounding connective tissue and slightly elevated by a pair of fine, curved forceps. Approximately ⅓ to ½ of the nerve was then tied off by passing a needle and nylon suture (7.0) through the nerve. The muscle and skin incision was then closed sutured separately with 5.0 suture and the animals were kept warm by placing on a thermostatically controlled heat blanket until they have recovered from the anesthesia. This procedure was conducted on the right side (ipsilateral) while a sham surgery was performed on the left hind leg (contralateral). The latter involves a similar procedure with the exception that the sciatic nerve on this side was only exposed and not ligated. Twelve hours post surgery, a second dose of buprenorphine was administered to minimize any discomfort from the surgical procedure. Rats were closely monitored daily for the development of infection or untoward effects of the surgery.
After an appropriate time for recovery (e.g., 7-14 days) the animals were tested for the development of mechanical allodynia (pain response to a non-noxious stimulus). For this study, the animals placed in a bottomless plexiglass box placed on a wire mesh (¼″) platform. After a 30-60 minute acclimation period, a baseline mechanical sensitivity was determined. […] This procedure was repeated until a 50% threshold for withdrawal could be determined.

[4] = test system: secondarily generalized partial seizures; assay: Hippocampal kindled rat model of partial epilepsy; assay type: in vivo; conditions: i.p.; decreases from 5
corneal kindling = assay: Mouse corneal kindling acquisition; assay type: in vivo, CF#1 mice; conditions: 4 mg/kg i.p. twice daily
Experimental: CF#1 mice were randomized to receive either vehicle (0.9% saline) or NAX-5055. Mice in the NAX-5055 group received two doses of NAX-5055 twelve (12 h) and 1 h prior to their first kindling stimulation. One hour (1 h) prior to each subsequent stimulation, mice in the NAX-5055 treated group received another dose of NAX-5055 (4 mg/kg, i.p.). Mice were stimulated twice daily for 16 days. Results are expressed as the mean seizure score per stimulation. As noted above, the results for the NAX-5055 treated mice segregated into two populations; i.e., sensitive (green line) and insensitive (blue line).
Daily electrical stimulation via the cornea results in a stable kindled state within 15-20 days. This is an ideal model to initially assess the ability of selected galanin analogs to prevent kindling acquisition because the amount of peptide required is much lower than what is required for a rat kindling study. Those compounds found to be effective in preventing the acquisition of kindling are subsequently evaluated in a more traditional rat kindling model; i.e., amygdala kindled rat. For the proposed studies two groups of mice (n=8 mice per group) are randomized to receive either vehicle or peptide prior to each kindling stimulation. […] At the time to peak effect (obtained from the 6 Hz study), they are stimulated via corneal electrodes with a subconvulsive current (50 Hz, 3 mA, for 3.0 sec) and observed for the presence or absence of seizure activity. Seizure activity is scored according to the criteria established by Racine et al., (1972). Animals receive two stimulations per day until they display their first Stage 5 behavioral seizure and then once daily until they display stable secondarily generalized seizures (5 consecutive Stage 4-5 seizures). Peptide treatment continues in the experimental group until the point that the control mice become fully kindled. At this point, mice in both groups are permitted a one-week stimulus and treatment-free week. On the 8th day, mice in both groups are stimulated in the absence of peptide or vehicle and their seizure score recorded.
The ability of the blood-brain-barrier penetrant galanin-based neuropeptide NAX-5055 to prevent the development of corneal kindling was studied in CF#1 mice. The mouse corneal kindling model is a non-intrusive animal model of partial epilepsy wherein mice receive an initially subconvulsive current (3 mA) for 3 seconds via corneal electrodes twice daily for several days. Vehicle treated mice usually require between 12-16 days to reach a stable Stage 5 seizure; i.e., a secondary generalized focal seizure. In the present study, 16 mice were randomized to one of two experimental groups; saline or NAX-5055. […] Following stimulation seizure activity was scored on a scale of 0-5 as established by Racine (1972).

Substance: Sar-Trp-Thr-Leu-Asn-Ser-Ala-Gly-Tyr-Leu-Leu-Gly-Pro-Lys-Lys-(Lys-palm)-Lys-NH2 [NAX 5055]
- protection in s.c. Metrazol seizure test [1]: 25%
- activity in maximal electroshock seizure test [2]: completely inactive
- effect of 5 mg/kg compared with 10 mg/kg gabapentin ([3]; 5 mg/kg i.p.): equivalent
- paw licking, acute and inflammatory phase ([3]; 0.52-5 mg/kg i.p., 60 min before formalin): dose-dependent reduction
- Active at (flat phase II) ([3]; mouse formalin assay of inflammatory pain): 5 mg/kg (“flat phase II”)
- potency compared with morphine (mechanical allodynia; 2 mg/kg i.p. vs 2 mg/kg morphine): equi-potent
- potency compared with gabapentin (mechanical allodynia; 2 mg/kg i.p. vs 40 mg/kg gabapentin): several fold more potent
- threshold for mechanical allodynia (mechanical allodynia; 2 mg/kg i.p., 30 min to 6 h): time-dependent increase
- seizure score [4]: 3
- kindling acquisition (corneal kindling): can delay kindling acquisition
- more stimulations to reach Stage 2 and Stage 3 seizures, NAX-5055 sensitive group (corneal kindling): 35-40%
- stimulations required to reach a Stage 1 seizure, NAX-5055 sensitive group (corneal kindling): two times more stimulations
- mice of NAX-5055 sensitive group that reached Stage 5 seizures (corneal kindling; sensitive n=3 of 8): none
